Reference: US6914045B2, “Glycopeptide antibiotics” (Wyeth Holdings Corporation, priority 2001, dated 2005)
In brackets after ≈: the same amount, converted by molar mass.

Assays:
Escherichia coli = assay: in vitro antibacterial evaluation, MIC by broth dilution; format: cell-based; conditions: 18 hours at 35° C.
In short: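 Broth dilution MIC per NCCLS M7-A2 in Mueller-Hinton II medium, inoculum 5×10^5 CFU/mL, antibiotic range 64-0.06 μg/mL. MIC taken as lowest concentration inhibiting growth.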

Streptococcus sp. = assay: as above; format: cell-based; conditions: broth dilution, 18 hours at 35° C.
In short: (§1)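 MIC = lowest antibiotic concentration preventing visible growth; inoculum 5×10^5 CFU/mL; drug range 64-0.06 μg/mL; Muller-Hinton II […]; NCCLS M7-A2 guidance.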

Enterococcus sp. = assay: as above; format: cell-based; conditions: broth dilution, 18 hours at 35° C.
In short: as §1

Staphylococcus sp. = assay: as above; format: cell-based; conditions: broth dilution, 18 hours at 35° C.
In short: as §1

[1] = anatomic pathology (histopathology of heart and kidney) in mice; format: in vivo; conditions: CD-1 mice, 20 mg/kg intravenously daily for 9 days, necropsy day 10, microscopic histopathology
Method: Samples of tissues from necropsied mice were formalin-fixed, paraffin-embedded, sectioned, stained with hematoxylin and eosin, and examined microscopically. Histopathologic findings were recorded. These findings were subjectively graded on a scale corresponding to slight, mild, moderate, marked and severe as compared to untreated controls.

MIC Escherichia coli (ATCC 25922) (Escherichia coli): >128 µg/mL
MIC Escherichia coli (GC 4559) (Escherichia coli): >128 µg/mL
MIC Escherichia coli (GC 4560) (Escherichia coli): >128 µg/mL
MIC Streptococcus agalactiae (GC 4564) (Streptococcus sp.): >128 µg/mL
MIC Streptococcus pneumoniae (ATCC 6301) (Streptococcus sp.): 128 µg/mL (≈ 92.4 µM)
MIC Streptococcus pneumoniae (GC 1894) (Streptococcus sp.): 64 µg/mL (≈ 46.2 µM)
MIC Streptococcus pneumoniae (GC 4565) (Streptococcus sp.): 128 µg/mL (≈ 92.4 µM)
MIC Streptococcus pyogenes (GC 4563) (Streptococcus sp.): >128 µg/mL
MIC Streptococcus pneumoniae (ATCC 6301) (Streptococcus sp.; strain ATCC 6301): 128 µg/mL (≈ 92.4 µM)
MIC Streptococcus pneumoniae (GC 1894) (Streptococcus sp.; strain GC 1894): 64 µg/mL (≈ 46.2 µM)
MIC Streptococcus pyogenes (GC 4563) (Streptococcus sp.; strain GC 4563): >128 µg/mL
MIC Streptococcus agalactiae (GC 4564) (Streptococcus sp.; strain GC 4564): >128 µg/mL
MIC Streptococcus pneumoniae (GC 4565) (Streptococcus sp.; strain GC 4565): 128 µg/mL (≈ 92.4 µM)
MIC Enterococcus avium (GC 4558) (Enterococcus sp.; Enterococcus avium (GC 4558)): 128 µg/mL (≈ 92.4 µM)
MIC Enterococcus faecalis (ATCC 29212) (Enterococcus sp.; Enterococcus faecalis (ATCC 29212)): >128 µg/mL
MIC Enterococcus faecalis (GC 4552) (Enterococcus sp.; Enterococcus faecalis (GC 4552)): >128 µg/mL
MIC Enterococcus faecalis (GC 4553) (Enterococcus sp.; Enterococcus faecalis (GC 4553)): >128 µg/mL
MIC Enterococcus faecalis (GC 4554) (Enterococcus sp.; Enterococcus faecalis (GC 4554)): >128 µg/mL
MIC Enterococcus faecalis (GC 6189) (Enterococcus sp.; Enterococcus faecalis (GC 6189)): >128 µg/mL
MIC Enterococcus faecium (GC 2243) (Enterococcus sp.; Enterococcus faecium (GC 2243)): >128 µg/mL
MIC Enterococcus faecium (GC 4556) (Enterococcus sp.; Enterococcus faecium (GC 4556)): >128 µg/mL
MIC Enterococcus faecium (GC 4557) (Enterococcus sp.; Enterococcus faecium (GC 4557)): 128 µg/mL (≈ 92.4 µM)
MIC Enterococcus avium (GC 4558) (Enterococcus sp.): 128 µg/mL (≈ 92.4 µM)
MIC Enterococcus faecalis (ATCC 29212) (Enterococcus sp.): >128 µg/mL
MIC Enterococcus faecalis (GC 2242) (Enterococcus sp.): >128 µg/mL
MIC Enterococcus faecalis (GC 2691) (Enterococcus sp.): >128 µg/mL
MIC Enterococcus faecalis (GC 3059) (Enterococcus sp.): >128 µg/mL
MIC Enterococcus faecalis (GC 4552) (Enterococcus sp.): >128 µg/mL
MIC Enterococcus faecalis (GC 4553) (Enterococcus sp.): >128 µg/mL
MIC Enterococcus faecalis (GC 4554) (Enterococcus sp.): >128 µg/mL
MIC Enterococcus faecalis (GC 6189) (Enterococcus sp.): >128 µg/mL
MIC Enterococcus faecium (GC 2243) (Enterococcus sp.): >128 µg/mL
MIC Enterococcus faecium (GC 4556) (Enterococcus sp.): >128 µg/mL
MIC Enterococcus faecium (GC 4557) (Enterococcus sp.): 128 µg/mL (≈ 92.4 µM)
MIC Enterococcus faecalis (GC 2242) (Enterococcus sp.; strain GC 2242): >128 µg/mL
MIC Enterococcus faecalis (GC 2691) (Enterococcus sp.; strain GC 2691): >128 µg/mL
MIC Enterococcus faecalis (GC 3059) (Enterococcus sp.; strain GC 3059): >128 µg/mL
MIC Staphylococcus aureus (ATCC 29213) (Staphylococcus sp.; strain ATCC 29213): >128 µg/mL
MIC Staphylococcus aureus (GC 1131) (Staphylococcus sp.; strain GC 1131): >128 µg/mL
MIC Staphylococcus aureus (GC 3051) (Staphylococcus sp.; strain GC 3051): >128 µg/mL
MIC Staphylococcus aureus (GC 3053) (Staphylococcus sp.; strain GC 3053): >128 µg/mL
MIC Staphylococcus aureus (GC 4541) (Staphylococcus sp.; strain GC 4541): >128 µg/mL
MIC Staphylococcus aureus (GC 4542) (Staphylococcus sp.; strain GC 4542): >128 µg/mL
MIC Staphylococcus aureus-SMITH (GC 4543) (Staphylococcus sp.; strain GC 4543): >128 µg/mL
MIC Staphylococcus aureus (GC 4544) (Staphylococcus sp.; strain GC 4544): >128 µg/mL
MIC Staphylococcus aureus (GC 4545) (Staphylococcus sp.; strain GC 4545): >128 µg/mL
MIC Coagulase Negative Staphylococcus (GC 4547) (Staphylococcus sp.; strain GC 4547): >128 µg/mL
MIC Coagulase Negative Staphylococcus (GC 4548) (Staphylococcus sp.; strain GC 4548): >128 µg/mL
MIC Coagulase Negative Staphylococcus (GC 4549) (Staphylococcus sp.; strain GC 4549): >128 µg/mL
MIC Coagulase Negative Staphylococcus (GC 4551) (Staphylococcus sp.; strain GC 4551): >128 µg/mL
MIC Coagulase Negative Staphylococcus (GC 6257) (Staphylococcus sp.; strain GC 6257): >128 µg/mL
Compound: CC(c1ccccc1)C1NC(=O)CNC(=O)C(CO)NC(=O)C(C(O)C2CN(Cc3ccccc3)C(=N)N2C2OC(CO)C(O)C(O)C2O)NC(=O)C(C(O)C2CNC(=N)N2)NC(=O)C(Cc2ccc(OC3OC(CO)C(OC4OC(CO)C(O)C(O)C4O)C(O)C3O)cc2)NC1=O (stereo not drawn) [Example 59, Cyclo[glycyl-β-methylphenylalanyl-O-(4-O-hexopyranosylhexopyranosyl)tyrosyl-(2-iminoimidazolidin-4-yl)seryl-3-[1-benzyl-3-hexopyranosyl-2-iminoimidazolidin-4-yl]serylseryl]]
MIC Staphylococcus haemolyticus (GC 4546) (Staphylococcus sp.; strain GC 4546): >128 µg/mL
Anatomical Pathology (Day 10), Heart [1]: 0
Anatomical Pathology (Day 10), Kidney [1]: 0
